The nature of this test: Transglycation of glucose-ethylamine with thiolamines followed by 13C NMR. The settings on record: 50 mM thiolamine, 20 mM G-E; for conversion of G-E to thiazolidine (glucosyl-cysteamine / glucosyl-penicillamine): 250 mM HEPES pH 7.25, room temperature; for potency as transglycating agent (kinetics of decomposition of G-E and formation of thiazolidines): pH 7.25, room temperature. On the procedure: The reaction mixture (0.5 ml in a 5 mm NMR tube) included 250 mM HEPES, pH 7.25, 10% D2O (for the purpose of locking the NMR magnetic field) and 50 mM concentration of a compound of interest such as cysteine. The reaction was performed at room temperature and it was initiated by adding an aliquot of G-E to produce a final concentration of 20 mM at which time consecutive NMR spectra of 20-minute duration were acquired using 580 scans, 60° pulses and an interpulse delay of 2.065 seconds.
NMR spectra were obtained on the VARIAN UNITY-300 and -500 MHz machines. Spectra were analyzed using information from model compounds and chemical shift data known in the art (Neglia, et al. (1985) J. Biol. Chem. 260:5406-10; Mossine, et al. (1994) Carbohyd. Res. 262:257-70).
Studies of reactions involving Schiff bases are intrinsically difficult as these compounds are labile at physiological pH. As such, to unambiguously follow Shiff base reactions in real-time, ^13C NMR spectroscopy was employed. To utilize this technique efficiently, glucose-ethylamine (G-E) was synthesized and labeled with ^13C at the C-1 position of the glucose moiety and with ^15N at the amino group of the ethylamine as a model compound of glucosyl-lysine.
Due to the spin-spin coupling between the nuclei of neighboring ^15N and ^13C atoms, the ^13C-labeled C-1 peak of glucose appeared in the ^13C NMR spectrum as a doublet resonating at 90.00 ppm. The unique signature doublet in the ^13C NMR spectrum of G-E, its chemical shift as well as the distinct ^13C chemical shifts of the other glucose-nucleophile adducts allowed for real-time observation reactions between G-E and various nucleophiles since cleavage of the ethylamine-glucose bond results in loss of the G-E doublet and the concomitant formation of new peaks corresponding to the new glucose-nucleophile adducts, e.g., the endproducts of transglycation of G-E, with glycine, taurine, spermidine and N-acetylcysteine. Because all of these transglycation products are labile at physiological pHs, the reactions were carried at a slightly alkaline pH of 8.5 to stabilize the reactants and products sufficiently so they could be followed by NMR over a span of several hours.

`CC(C)(S)[C@@H](N)C(=O)O` [penicillamine]: the “conversion of G-E to thiazolidine (glucosyl-cysteamine / glucosyl-penicillamine)” value is listed as 70%; the “potency as transglycating agent (kinetics of decomposition of G-E and formation of thiazolidines)” value (shortened to “potency as transglycating agent”) is listed as “much more potent”.

Turning to `NCCS` [cysteamine], the “conversion of G-E to thiazolidine (glucosyl-cysteamine / glucosyl-penicillamine)” value turned out to be 80%; the “potency as transglycating agent” value was “much more potent”.

With `N[C@@H](CS)C(=O)NCC(=O)O` [cys-gly], the “potency as transglycating agent” value was “reasonably good transglycating agents”.

With `N[C@@H](CS)C(=O)O` [cysteine], the “potency as transglycating agent” value is given as “reasonably good transglycating agents”.

For the origin of these results see patent US8138227B2, “Method for inhibiting or reversing non-enzymatic glycation” (Trustees of Dartmouth College, priority 2006, dated 2012).
